Experimental data reported in patent US20110151258A1, “PREPARATION OF RANOLAZINE” (DR. REDDY'S LABORATORIES LTD., priority 2008, published 2011).

Legend:
Type in all cases: physicochemical
[1] = Specific surface area and span by light scattering (Malvern method); conditions: for span: particle size distribution span; for Specific surface area: method not stated at the place
Excerpt: (§1) In an embodiment, the present application provides a pharmaceutical composition comprising ranolazine having a specific surface area more than about 0.1 m^2/g, or more than about 0.5 m^2/g, or more than about 1 m^2/g, or more than about 2 m^2/g, or more than about 3 m^2/g, or more than about 5 m^2/g. “Specific surface area” as used herein, unless otherwise defined refers to the total particle surface […]. The specific surface area of ranolazine of the present invention may be measured by a BET (Brunauer, Emmett and Teller) specific surface method, such as using a Micromeritics Gemini surface area analyzer, model 2365. Samples for analysis are degassed at 40° C. under reduced pressure and the determination of the adsorption of nitrogen gas at 77° K may be measured for relative pressures in the range of 0.05-0.3. Specific surface area and span of ranolazine of the present application may be measured by using light scattering equipment, such as, for example, a Malvern Master Sizer 2000 (helium neon laser source, ranolazine suspended in light liquid paraffin, size range: 0.01 μm to 3000 μm).

[2] = Particle size distribution by light scattering (Malvern Master Sizer 2000); conditions: for Particle size distribution: D10: 10th volume percentile particle size; for Particle size distribution: D50: 50th volume percentile particle size; for Particle size distribution: D90: 90th volume percentile particle size
Excerpt: Particle size distributions of ranolazine particles may be measured by any technique known in the art. For example, particle size distributions of ranolazine particles may be measured using light scattering equipment, such as, for example, a Malvern Master Sizer 2000 from Malvern Instruments Limited, Malvern, Worcestershire, United Kingdom (helium neon laser source, ranolazine suspended in light liquid paraffin, size range: 0.01 μm to 3000 μm).

[3] = Specific surface area by BET method
Excerpt: as §1

[4] = Bulk density (USP Test 616, method 2)
Excerpt: In an embodiment, the present application provides ranolazine having bulk densities less than about 0.8 g/mL, or less than about 0.5 g/mL, or less than about 0.3 g/mL. Bulk density may be determined using Test 616 “Bulk Density and Tapped Density,” as in United States Pharmacopoeia 29, United States Pharmacopeial Convention, Inc., Rockville, Md., 2005, in method 2.

COc1ccccc1OCC(O)CN1CCN(CC(=O)Nc2c(C)cccc2C)CC1 (stereo not shown) [Example 16, Ranolazine]
Specific surface area by Malvern method [1]: 1.63 m^2/g
span [1]: 1.817
Particle size distribution: D10 [2]: 5.026 μm
Particle size distribution: D50 [2]: 18.770 μm
Particle size distribution: D90 [2]: 39.137 μm
specific surface area by BET method [3]: 0.46 m^2/g

COc1ccccc1OCC(O)CN1CCN(CC(=O)Nc2c(C)cccc2C)CC1 (stereo not shown) [Example 18, Ranolazine]
Specific surface area [1]: 0.705 m^2/g
span [1]: 1.611
Particle size distribution: D10 [2]: 4.420 μm
Particle size distribution: D50 [2]: 16.147 μm
Particle size distribution: D90 [2]: 30.439 μm
bulk density after tapping ([4]; after tapping): 0.477 g/mL
bulk density before tapping ([4]; before tapping): 0.353 g/mL

COc1ccccc1OCC(O)CN1CCN(CC(=O)Nc2c(C)cccc2C)CC1 (stereo not shown) [Example 19, Ranolazine]
Specific surface area [1]: 0.291 m^2/g
span [1]: 1.823
Particle size distribution: D10 [2]: 13.262 μm
Particle size distribution: D50 [2]: 41.574 μm
Particle size distribution: D90 [2]: 89.060 μm

COc1ccccc1OCC(O)CN1CCN(CC(=O)Nc2c(C)cccc2C)CC1 (stereo not shown) [Example 15, Ranolazine]
Specific surface area [1]: 0.655 m^2/g
span [1]: 2.813
Particle size distribution: D10 [2]: 5.272 μm
Particle size distribution: D50 [2]: 18.656 μm
Particle size distribution: D90 [2]: 57.748 μm

COc1ccccc1OCC(O)CN1CCN(CC(=O)Nc2c(C)cccc2C)CC1 (stereo not shown) [Example 17, Ranolazine]
Specific surface area by Malvern method [1]: 1.99 m^2/g
span [1]: 1.905
Particle size distribution: D10 [2]: 1.324 μm
Particle size distribution: D50 [2]: 5.140 μm
Particle size distribution: D90 [2]: 11.116 μm
specific surface area by BET method [3]: 2.54 m^2/g

COc1ccccc1OCC(O)CN1CCN(CC(=O)Nc2c(C)cccc2C)CC1 (stereo not shown) [Example 14, Ranolazine]
Specific surface area [1]: 0.539 m^2/g
span [1]: 1.833
Particle size distribution: D10 [2]: 6.311 μm
Particle size distribution: D50 [2]: 22.490 μm
Particle size distribution: D90 [2]: 47.539 μm
